Test results from patent publication US6599514B1, “Antifungal composition” (Syngenta Limited, priority 1997, dated 2003).

Assays:
Assay type in all cases: cell-based
[1] = tested on: Penicillium roquefortii; experiment: Antifungal microplate growth inhibition assay (MIC, growth % of control); settings: for Fungal growth as compared to the control: individual application; for MIC / concentration required alone to give strong growth inhibition: medium B (½ PDB + 1 mM CaCl2 + 50 mM KCl), agent used alone
Protocol: (§1) Unless otherwise stated the incubation was carried out at 24° C. for 48 hours. Percentages of fungal growth were estimated by microscopic examination of the microplates after the incubation period. The control microcultures were used as a reference in order to estimate fungal growth inhibition.
(§2) The antifungal potency of the purified proteins was assessed on different food spoilage fungi using the assay described above. Growth of fungi, collection and harvest of fungal spores were done as previously described (Broekaert et al., 1990, FEMS Microbiol. Lett., 69: 55-60).
(§3) The percentage growth inhibition was estimated by microscopic inspection of the microtitre plates, taking the microculture control with no antifungal protein added as a reference for normal fungal growth.
(§4) Following inoculation the plates were incubated at 24° C. for 48 hours.
(§5) Chitinase-I and β-1,3-glucanase were extracted and purified from tobacco according to the method published by Sela-Buurlage, M. B., et al., in 1993 (Plant Physiol. 101, 857-863). The purified enzymes were mixed in a 1:1 ratio and then tested for antifungal activity against the food spoilage fungal strains Penicillium roquefortii and P. chrysogenum. The antifungal assays were carried out as described above. Assessment of growth inhibition was carried out by microscopic examination after 48 and 96 hours incubation at 24° C.
(§6) In Colby's formula, E1=X1Y1/100, X1 and Y1 represent growth as a percentage of control with compound A (dosage p) and compound B (dosage q), respectively. E1 is the i5 expected growth as a percentage of control with the mixture A and B (dosage p+q). […] Comparison of the observed and expected percent inhibition responses (Eobs/Eexp) indicates synergism (Eobs/Eexp>1) or antagonism (Eobs/Eexp<1).

[2] = tested on: Penicillium chrysogenum; experiment: as above; settings: for MIC / concentration required alone to give strong growth inhibition: medium B (½ PDB + 1 mM CaCl2 + 50 mM KCl), agent used alone; for Fungal growth as compared to the control: individual application
Protocol: as §1, §2, §3, §4, §5, §6

[3] = tested on: Penicillium commune; experiment: Antifungal microplate growth inhibition assay (MIC); settings: medium B (½ PDB + 1 mM CaCl2 + 50 mM KCl), 48 h, 24° C., agent used alone
Protocol: Unless otherwise stated the incubation was carried out at 24° C. for 48 hours. Percentages of fungal growth were estimated by microscopic examination of the microplates after the incubation period. The control microcultures were used as a reference in order to estimate fungal growth inhibition. […] The antifungal potency of the purified proteins was assessed on different food spoilage fungi using the assay described above. Growth of fungi, collection and harvest of fungal spores were done as previously described (Broekaert et al., 1990, FEMS Microbiol. Lett., 69: 55-60). […] The percentage growth inhibition was estimated by microscopic inspection of the microtitre plates, taking the microculture control with no antifungal protein added as a reference for normal fungal growth.

[4] = tested on: Fusarium culmorum; experiment: as above; settings: 48 h, 24° C.; for MIC / concentration required alone to give strong growth inhibition: medium B (½ PDB + 1 mM CaCl2 + 50 mM KCl), agent used alone
Protocol: as §1, §2, §3
(§7) The Ib-AMP1 pure protein was added to the test solution and mixed with the fungal spore suspension as described above. Following inoculation the plates were incubated at 24° C. for 48 hours. […] A summary of the results obtained is shown on table 14.

[5] = tested on: Alternaria sp.; experiment: as above; settings: 48 h, 24° C.; for MIC / concentration required alone to give strong growth inhibition: medium B (½ PDB + 1 mM CaCl2 + 50 mM KCl), agent used alone
Protocol: as §1, §2, §3, §4

[6] = tested on: Trichoderma harzianum; experiment: as above; settings: 48 h, 24° C.; for MIC / concentration required alone to give strong growth inhibition: medium B (½ PDB + 1 mM CaCl2 + 50 mM KCl), agent used alone
Protocol: as §1, §2, §3, §4

[7] = tested on: Cladosporium sp.; experiment: as above; settings: 48 h, 24° C.; for MIC / concentration required alone to give strong growth inhibition: medium B (½ PDB + 1 mM CaCl2 + 50 mM KCl), agent used alone
Protocol: as §1, §2, §3, §4

[8] = tested on: range of food spoilage strains; experiment: Antifungal microplate assay, statements on the whole range of strains; settings: 200 ppm (maximum concentration tested), medium B, 48 hours, 24° C.
Protocol: as §1
The following fungal strains were used: Fusarium culmorum, Penicillium chrysogenum, Penicillium roquefortii, Penicillium commune, Penicillium nalgiovense, Mucor plumbeus, Scopulariopsis brevicaulis, Aspergillus versicolor, Alternaria sp., Cladosporium sp. and Trichoderma harzianum.
as §3, §7

[9] = tested on: Mucor plumbeus; experiment: Antifungal microplate growth inhibition assay (MIC); settings: medium B (½ PDB + 1 mM CaCl2 + 50 mM KCl), 48 h, 24° C., agent used alone
[10] = medium B, 96 hours, 24° C., used alone
[11] = medium A (½ PDB), 48 h, 24° C., protein alone
[12] = medium A (½ PDB), protein alone

Compound: C/C=C/C=C/C(=O)[O-].[K+] [K sorbate, potassium sorbate]
- Fungal growth inhibition, % of the controls ([1]; K sorbate alone, 96 hours incubation, medium B, strain not told apart from P. chrysogenum): 10-20%
- Fungal growth as compared to the control ([1]; 500 ppm, medium B): 90%
- MIC / concentration required alone to give strong growth inhibition ([1]; 48 h, 24° C.): 1500 ppm
- Concentration required alone to give strong growth inhibition [1, 10]: >2,000 ppm
- Fungal growth inhibition, % of the controls ([2]; K sorbate alone, 96 hours incubation, medium B, strain not told apart from P. roquefortii): 10-20%
- MIC / concentration required alone to give strong growth inhibition ([2]; 48 h, 24° C.): 1000 ppm
- Concentration required alone to give strong growth inhibition [2, 10]: >2,000 ppm

Compound: O=C([O-])CN(CCN(CC(=O)[O-])CC(=O)[O-])CC(=O)[O-].[Ca+2].[Na+].[Na+] [CaNa2EDTA, calcium disodium EDTA]
- MIC / concentration required alone to give strong growth inhibition ([1]; 48 h, 24° C.): >150 ppm
- MIC / concentration required alone to give strong growth inhibition ([2]; 48 h, 24° C.): >150 ppm

Compound: O=C(O)CN(CCN(CC(=O)O)CC(=O)O)CC(=O)O [EDTA]
- MIC / concentration required alone to give strong growth inhibition ([1]; 48 h, 24° C.): >200 ppm
- MIC / concentration required alone to give strong growth inhibition ([2]; 48 h, 24° C.): 200 ppm
- MIC / concentration required alone to give strong growth inhibition [3]: >200 ppm

Compound: CC(O)C(=O)O (stereo not shown) [Lactic acid, lactic acid]
- Fungal growth as compared to the control ([2]; 2500 ppm, medium B): 90%
- MIC / concentration required alone to give strong growth inhibition ([2]; 48 h, 24° C.): 20,000 ppm

Compound: Rs-AFP2: purified antifungal protein of Raphanus sativus (radish) seeds, described in WO93/05153 (QKLCQRPSGTWSGVCGNNNACKNQCIRLEKARHGSCNYVFPAHKCICYFPC; UniProt P30230 30-80, looked up)
- Fungal growth as compared to the control ([1]; 3.1 ppm, medium B): 100%
- MIC (minimum concentration giving more than 90% growth inhibition) [1, 11]: 3 ppm
- MIC / concentration required alone to give strong growth inhibition ([1]; 48 h, 24° C.): 25 ppm
- MIC (minimum concentration giving more than 90% growth inhibition) [2, 11]: >200 ppm
- MIC / concentration required alone to give strong growth inhibition ([2]; 48 h, 24° C.): >200 ppm
- MIC (minimum concentration giving more than 90% growth inhibition) [4, 12]: 3.1 ppm
- MIC / concentration required alone to give strong growth inhibition [4]: 12.5 ppm
- MIC (minimum concentration giving more than 90% growth inhibition) [5, 12]: 6.25 ppm
- MIC / concentration required alone to give strong growth inhibition [5]: 200 ppm
- MIC (minimum concentration giving more than 90% growth inhibition) [6, 12]: 200 ppm
- MIC / concentration required alone to give strong growth inhibition [6]: >200 ppm
- MIC (minimum concentration giving more than 90% growth inhibition) [7, 12]: 100 ppm
- MIC / concentration required alone to give strong growth inhibition [7]: >200 ppm

Compound: O=C([O-])CN(CCN(CC(=O)O)CC(=O)O)CC(=O)[O-].[Na+].[Na+] [Na2H2EDTA, disodium dihydrogen EDTA]
- Fungal growth as compared to the control ([2]; 75 ppm, medium B): 90%
- MIC / concentration required alone to give strong growth inhibition ([2]; 48 h, 24° C.): >150 ppm

Compound: COc1ccc(O)c(C(C)(C)C)c1 [BHA, butylated hydroxyanisole]
- Antifungal activity of BHA added alone [8]: no antifungal activity was observed
- MIC / concentration required alone to give strong growth inhibition ([1]; 48 h, 24° C.): >200 ppm
- Fungal growth as compared to the control ([2]; 50 ppm, medium B): 99%
- MIC / concentration required alone to give strong growth inhibition ([2]; 48 h, 24° C.): >200 ppm
- MIC / concentration required alone to give strong growth inhibition [4]: >200 ppm
- MIC / concentration required alone to give strong growth inhibition [9]: >200 ppm
- MIC / concentration required alone to give strong growth inhibition [5]: >200 ppm
- MIC / concentration required alone to give strong growth inhibition [6]: >200 ppm
- MIC / concentration required alone to give strong growth inhibition [7]: >200 ppm

Compound: O=C([O-])c1ccccc1.[Na+] [Na benzoate, sodium benzoate]
- Fungal growth as compared to the control ([2]; 500 ppm, medium B): 99%
- MIC / concentration required alone to give strong growth inhibition ([2]; 48 h, 24° C.): 6000 ppm
